The values that follow come from article PMC10587869, “Deciphering Structural Determinants Distinguishing Active from Inactive Cell-Penetrating Peptides for Cytosolic mRNA Delivery” (Bioconjugate Chemistry, 2023).

Positions of bridges follow the written chain, without caps; N, C: chain ends. No end group written: not given here.

Series [1] in a line: Dynamic light scattering of peptide-mRNA nanoparticles. As to conditions: hLF-v1 mRNA polyplexes, context: upon polymerization; N/P not printed at the place; DLS 25 °C, no serum. In kind it is physicochemical. Here is the method: (§1) Peptide-mRNA polyplexes were formulated as previously described.[40],[41] In short, two separate stock solutions of mRNA and peptide were prepared in MQ and simultaneously dispensed with electronically dispensing pipettes (E4 Electronic Pipette, LTS E4-100XLS+, Mettler-Toledo Rainin, LLC, Oakland, CA, USA) at a flow rate of 11 mL min^–1. All polyplexes were formed at a concentration of at least 10-fold the final intended concentration for transfections.
The hydrodynamic diameter of the nanoparticles was measured at 25 °C by dynamic light scattering (DLS) using a Zetasizer Nano ZS (Malvern Instruments, Worcestershire, UK) equipped with a 4 mW He–Ne laser (633 nm) with a backscatter detection angle of 173°. At least 40 μL of 10 times concentrated nanoparticle solution was measured in a UV-cuvette (BrandTech Scientific, Essex, CT, USA, Cat. No. 759200).

Series [2] concerns MC3T3 cells. Kind of series: Cellular uptake of Cy5-eGFP mRNA polyplexes, live-cell confocal microscopy. It is filed as cell-based, murine. The method, then: as §1
(§2) One day before mRNA transfections, 10 000 MC3T3 cells in 100 μL were seeded in 96-well plates (Greiner Bio-One Cat. No. 655180) or 20 000 cells in 200 μL in μ-slide eight-well chambers (Ibidi, Gräfelfing, Germany). These seeding densities ensured confluency between ∼70 and 90% on the day of transfection. mRNA transfections were performed by removing the complete medium from the wells and replacing it with mRNA nanoparticles diluted 10 times in complete medium. Cells were exposed to mRNA nanoparticles for 2 h at 37 °C, 5% CO2, in a humidified incubator. For some experiments, cells were stained with 200 μL of 1 μM CellTrace yellow (Thermo Fisher Scientific, Cat. No. C34567) directly after the nanoparticle incubation, according to the manufacturer’s instructions. Regardless of the tested N/P ratio or type of nanoparticle, mRNA inputs were equalized across conditions, resulting in 107 ng/well for luciferase assays in 96-well plate formats and 214 ng/well for confocal microscopy experiments. […] For untreated controls, complete cell culture medium was added and refreshed as often as in the experimental conditions.
Before microscopy, complete medium containing phenol red was replaced with an equal volume of phenol red-free and HEPES-formulated Opti-MEM (Gibco). The uptake of Cy5-eGFP mRNA-formulated nanoparticles was assessed 2 h post-transfection, and eGFP expression was assessed 24 h post-transfection. Live-cell imaging was performed using a Leica TCS SP8 SMD (Leica Microsystems, Mannheim, Germany) with an HC PL APO CS2 63×/1.20 water objective and a temperature-controlled stage at 36.5 °C. eGFP was excited at 488 nm (emission: 500–550 nm). CellTrace yellow was excited at 555 nm (emission: 570–620 nm), and Cy5 was excited at 633 nm (emission: 650–690 nm). All laser lines were generated by a white-light laser, and emissions were detected with hybrid detectors. All channels were sequentially acquired to avoid crosstalk at a bit depth of 12. Except for the LMM eGFP conditions (reduced gain), equal acquisition settings (pixel size, pinhole, laser power, and gain) per fluorophore were used within the experiments.
Quantification of the Cy5 fluorescence was performed as previously described.[59],[60] In brief, five separate images (unless stated otherwise) containing approximately 10 cells per image were analyzed using ImageJ (version 1.53f51). A square mask of 184.52 μm^2 was used to quantify the raw integrated density (sum of all pixels in a region of interest). Importantly, cell confluencies ranged from ∼80–95%, ensuring minimal impact of cell density on total fluorescence values. The brightness and contrast of the images were adjusted to find a cell-free region to determine background fluorescence. Then, a circle was drawn to measure the background fluorescence. To obtain the corrected total cellular fluorescence (CTCF), the area (in pixels) was multiplied by the mean gray value of the background and subsequently subtracted from the raw integrated density.

Series [3] concerns MC3T3 cells. Nature of the series: eGFP protein expression after mRNA transfection, live-cell confocal microscopy. In kind it is cell-based, murine. As to conditions: N/P 3, eGFP mRNA, 24 h post-transfection. The method, then: as §1, §2
Before microscopy, complete medium containing phenol red was replaced with an equal volume of phenol red-free and HEPES-formulated Opti-MEM (Gibco). The uptake of Cy5-eGFP mRNA-formulated nanoparticles was assessed 2 h post-transfection, and eGFP expression was assessed 24 h post-transfection. […] All laser lines were generated by a white-light laser, and emissions were detected with hybrid detectors. […]

The nature of series [4]: Heparin-mediated polyplex decomplexation assay (QuantiFluor RNA). The settings on record: N/P 1 and 3, low or high heparin amounts; Figure S8. It is filed as physicochemical. The method, then: For testing the stability of mRNA polyplexes, a polyanion decomplexation assay, mediated by the polyanionic heparin (heparin sodium salt from porcine intestinal mucosa, Cat. No. H3149-100 KU, Sigma-Aldrich) was performed. mRNA polyplexes were freshly prepared with uncapped SecNLuc mRNA (RIBOPRO), as described in the section mRNA Nanoparticle Formation. Following polyplex formation, all samples were incubated for at least 30 min at room temperature. Importantly, separate stock solutions of heparin were made to ensure an equal volume across conditions regardless of heparin concentration. For decomplexation, 5 μL of 10× polyplexes were diluted in RNase-free TE-buffer at pH 7.5 (Promega, Cat. No. E260A) supplemented with an equal volume of heparin across conditions to a total volume of 50 μL in a 384-well plate (Greiner Bio-One, Cat. No. 781101). All samples were quickly spun down before incubation at 37 °C for 90 min. The QuantiFluor RNA System (Promega, Cat. No. E3310) was used with a 1:2000 dilution of RNA-binding dye for all tested conditions to detect released mRNA. For quantification, a calibration curve with uncapped SecNLuc mRNA was made, spanning from 0.19 ng mRNA/well to 50 ng mRNA/well. For detection of released mRNA, the dye was excited at 485 nm, and emission was collected at 535 nm using the VICTOR X3Multilabel Plate Reader (PerkinElmer)
Data analysis was performed using GraphPad Prism (GraphPad Software, version 8.4.2, San Diego, CA, USA). Data are presented as means ± standard deviation (SD) unless stated otherwise. Means were calculated by first averaging the technical replicates, for which outliers were identified using Grubbs’ test, followed by averaging the biological replicates. Before statistical analysis, all data were checked for normal distribution with a Shapiro–Wilk test. Statistical analysis was done using one- or two-way analysis of variance (ANOVA). Multiple comparisons were corrected using Tukey’s test with 95% confidence intervals. For the mRNA standard curve used in heparin decomplexation assays, the coefficient of variation was determined both in the standards and in samples and was ≤20%. The standard curve was fitted using a sigmoidal four-parameter logistic curve. The standard curve was back fitted with ±10% accuracy to verify the correctness of the fit. The signals from samples were blanked with the appropriate solution (TE buffer) before calculating interpolations. p > 0.05 was considered not significant, and p values were reported using the GraphPad Prism style (*p ≤ 0.05, **p ≤ 0.01, ***p ≤ 0.001, and ****p ≤ 0.0001).

For series [5], the system named is MC3T3 cells. Kind of series: Luciferase expression after SecNLuc mRNA transfection (Nano-Glo). It is filed as cell-based, murine. Here is the method:
as §1
One day before mRNA transfections, 10 000 MC3T3 cells in 100 μL were seeded in 96-well plates (Greiner Bio-One Cat. No. 655180) or 20 000 cells in 200 μL in μ-slide eight-well chambers (Ibidi, Gräfelfing, Germany). These seeding densities ensured confluency between ∼70 and 90% on the day of transfection. mRNA transfections were performed by removing the complete medium from the wells and replacing it with mRNA nanoparticles diluted 10 times in complete medium. Cells were exposed to mRNA nanoparticles for 2 h at 37 °C, 5% CO2, in a humidified incubator. […]
The extent of luciferase production was determined using the Nano-Glo Luciferase Assay (Promega, Madison, WI, USA, Cat No. N1130) according to the manufacturer’s instructions. […] Luminescence was measured after briefly shaking the plate using the VICTOR X3Multilabel Plate Reader (PerkinElmer, Waltham, MA, USA).

The subject of another series is HeLa cells. The description is as above. It is filed as cell-based, human.

“KCFQWLRNLRKVRALLVSCLKR [hLF-v1, amphipathic hLF variant with PF14 motifs and the same cationic amino acids as hLF-WT]”: the “monodisperse particle size by DLS” value in series [1] amounted to 72 ± 2.1 nm. Besides, the “effect of oligomerization on uptake” value in the series with MC3T3 cells [2] (2 h incubation, Cy5-labeled mRNA, polymerized vs monomeric, Figure 5, Figure S5) is “no benefit for uptake”. The “uptake of Cy5-labeled mRNA polyplexes of amphipathic hLF variants” value in the series on MC3T3 cells [2] (2 h incubation, live-cell confocal microscopy, serum present, Figure 5, four independent experiments) was “performed the worst and tended to aggregate upon polymerization”. Moreover, the “eGFP protein expression” value with MC3T3 cells [3] was “fewer cells were positive for eGFP expression than for PF14”.
Turning to “KCFQWLRNLRKVRALLVSCLKR (disulfide 2-19 (inferred)) [poly hLF-v1, polymeric hLF-v1]”, in series [4], the “difference in heparin decomplexation” value was “no difference”. The “luciferase expression as fraction of PF14-induced expression” value in the series with MC3T3 cells [5] (MC3T3, N/P 5) was “approximately half”. Moreover, the “eGFP protein expression” value in the series with MC3T3 cells [3] is “successful delivery”. Further, the “luciferase expression” value with HeLa cells (N/P 3, compared to untreated) is listed as “significant luciferase expression”. The “luciferase expression higher than PF14” value in the series on HeLa cells (N/P 5) is recorded as approximately 5%.
As for KCFQWQRNMRKVRGPPVSCIKR [hLF-WT], the “ratio of Poly hLF-x vs Mono-hLF-x, Corrected Total Cellular Fluorescence (Cy5)” value with MC3T3 cells [2] (Cy5-eGFP mRNA polyplexes, 2 h post-transfection, n = 5 fields of view per condition) stood at 2.33 x. Further, in the series with MC3T3 cells [2] (N/P 3 polyplexes (LMM lipoplexes), 2 h post-transfection, complete medium with 10% FBS, confocal, Figure 1, five independent experiments), the “cellular uptake of Cy5-labeled eGFP mRNA” value was “only little uptake”. The “luciferase activity” value in the series on MC3T3 cells [5] (MC3T3, independent of the N/P ratio (3 or 5)) is “no activity”. Moreover, the “eGFP protein expression” value in the series with MC3T3 cells [3] was “no expression”.
